Converted amounts (≈) assume the structure as drawn.
Key:
Carbonic anhydrase 4 = molecular target: T1, Carbonic anhydrase 4 (Bos taurus, UniProt Q95323)
T1 sequence (Q95323 whole entry): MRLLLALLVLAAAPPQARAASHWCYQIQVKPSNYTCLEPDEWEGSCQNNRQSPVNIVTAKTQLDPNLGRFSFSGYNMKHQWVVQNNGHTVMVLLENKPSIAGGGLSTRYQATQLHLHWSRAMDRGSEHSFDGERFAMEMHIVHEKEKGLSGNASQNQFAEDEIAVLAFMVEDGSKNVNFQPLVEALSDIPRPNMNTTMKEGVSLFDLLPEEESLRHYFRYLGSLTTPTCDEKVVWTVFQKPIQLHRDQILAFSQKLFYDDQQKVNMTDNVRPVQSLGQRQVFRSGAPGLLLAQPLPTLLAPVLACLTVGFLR
Description: Inhibition of bovine Carbonic anhydrase IV determined by esterase method

Carbonic anhydrase 1 = Carbonic anhydrase 1 (Homo sapiens, UniProt P00915)
Description: Inhibition of human cloned Carbonic anhydrase I

Carbonic anhydrase 2 = Carbonic anhydrase 2 (Homo sapiens, UniProt P00918)
Description: Inhibition of human cloned Carbonic anhydrase II

[1] = octanol/water
Description: Partition coefficient (logD) (chloroform/buffer)

Oryctolagus cuniculus [2] = species on record: Oryctolagus cuniculus
Description: In vitro transcorneal accession rate (without epithelium) of compound was determined

Oryctolagus cuniculus [3] = species on record: Oryctolagus cuniculus; remark: listed apart in the source
Description: In vitro transcorneal accession rate (intact cornea) of compound was determined

physchem = conditions: buffer, pH 7.4
Description: Solubility (hydrochloride salt) in buffer at pH 7.4 and at 25 degree celsius.

Oryctolagus cuniculus [4] = species on record: Oryctolagus cuniculus; remark: listed apart in the source
Description: Reduction of intraocular pressure in normotensive rabbits after treatment with 50 uL of compound (as HCl salt) at pH 5.5 in eye after 30 min from administration, to that of controls

Oryctolagus cuniculus [5] = species on record: Oryctolagus cuniculus; remark: listed apart in the source
Description: Reduction of intraocular pressure in normotensive rabbits after treatment with 50 uL of compound (as HCl salt) at pH 5.5 in eye after 0 min from administration, to that of controls

Oryctolagus cuniculus [6] = species on record: Oryctolagus cuniculus; remark: listed apart in the source
Description: Reduction of intraocular pressure in normotensive rabbits after treatment with 50 uL of compound (as HCl salt) at pH 5.5 in eye after 90 min from administration, to that of controls

Oryctolagus cuniculus [7] = species on record: Oryctolagus cuniculus; remark: listed apart in the source
Description: Reduction of intraocular pressure in normotensive rabbits after treatment with 50 uL of compound (as HCl salt) at pH 5.5 in eye after 60 min from administration, to that of controls

Oryctolagus cuniculus [8] = species on record: Oryctolagus cuniculus; remark: listed apart in the source
Description: Reduction of intraocular pressure in normotensive rabbits after treatment with 50 uL of compound (as HCl salt) at pH 5.5 in eye after 240 min from administration, to that of controls

Chain of Carbonic anhydrase 1 (P00915 whole entry): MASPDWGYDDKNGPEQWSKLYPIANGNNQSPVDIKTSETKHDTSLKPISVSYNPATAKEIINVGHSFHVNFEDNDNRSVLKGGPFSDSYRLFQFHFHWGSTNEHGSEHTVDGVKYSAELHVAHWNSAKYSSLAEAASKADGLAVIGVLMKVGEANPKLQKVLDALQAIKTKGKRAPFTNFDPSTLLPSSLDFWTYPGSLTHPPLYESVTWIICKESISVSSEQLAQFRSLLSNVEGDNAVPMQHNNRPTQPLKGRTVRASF

Row | SMILES | Ki (Carbonic anhydrase 4) [µM] | Ki (Carbonic anhydrase 1) [µM] | Ki (Carbonic anhydrase 2) [µM] | logD [1] | Kin (Oryctolagus cuniculus [2]) [h⁻¹] | Kin (Oryctolagus cuniculus [3]) [h⁻¹] | solubility (physchem) [mM] | Delta IOP (Oryctolagus cuniculus [4]) [mmHg] | Delta IOP (Oryctolagus cuniculus [5]) [mmHg] | Delta IOP (Oryctolagus cuniculus [6]) [mmHg] | Delta IOP (Oryctolagus cuniculus [7]) [mmHg] | Delta IOP (Oryctolagus cuniculus [8]) [mmHg]
1 | NS(=O)(=O)c1cccc(NS(=O)(=O)c2ccc(NCc3cc(=O)oc4cc(Cl)ccc34)cc2)c1 | 0.03 | 0.036 | 0.006 | – | – | – | – | – | – | – | – | –
2 | NS(=O)(=O)c1ccc(CNCc2cc(=O)oc3cc(Cl)ccc23)cc1 | 0.24 | 1.06 | 0.145 | – | – | – | – | – | – | – | – | –
3 | NS(=O)(=O)c1ccccc1NCc1cc(=O)oc2cc(Cl)ccc12 | 0.3 | 21.5 | 0.27 | – | – | – | – | – | – | – | – | –
4 | NS(=O)(=O)c1ccc(NCc2cc(=O)oc3cc(Cl)ccc23)cc1 | 0.17 | 15 | 0.125 | – | – | – | – | – | – | – | – | –
5 | NS(=O)(=O)c1ccc(CCNCc2cc(=O)oc3cc(Cl)ccc23)cc1 | 0.225 | 0.95 | 0.12 | – | – | – | – | – | – | – | – | –
6 | NS(=O)(=O)c1cccc(NCc2cc(=O)oc3cc(Cl)ccc23)c1 | 0.28 | 20 | 0.25 | – | – | – | – | – | – | – | – | –
7 | Cn1nc(S(N)(=O)=O)s/c1=N\S(=O)(=O)c1ccc(NCc2cc(=O)oc3cc(Cl)ccc23)cc1 | 0.0006 | 0.001 | 0.0005 | – | – | – | – | – | – | – | – | –
8 | NS(=O)(=O)c1ccc(NCc2cc(=O)oc3cc(Cl)ccc23)c(Br)c1 | 0.078 | 0.6 | 0.033 | – | – | – | – | – | – | – | – | –
9 | NS(=O)(=O)c1nnc(NN2C(=O)c3cccnc3C2=O)s1 | 0.018 | 0.039 | 0.008 | 0.315 | 7600 | 2500 | 72 (≈ 23.5 mg/mL) | – | – | – | – | –
10 | NS(=O)(=O)c1cc(S(N)(=O)=O)c(NCc2cc(=O)oc3cc(Cl)ccc23)c(Cl)c1Cl | 0.049 | 0.5 | 0.018 | – | – | – | – | – | – | – | – | –
11 | NS(=O)(=O)c1ccc(NNCc2cc(=O)oc3cc(Cl)ccc23)cc1 | 0.32 | 21.8 | 0.275 | – | – | – | – | – | – | – | – | –
12 | NS(=O)(=O)c1ccc(NCc2cc(=O)oc3cc(Cl)ccc23)c(Cl)c1 | 0.096 | 0.52 | 0.045 | – | – | – | – | – | – | – | – | –
13 | NS(=O)(=O)c1nnc(NC(=O)CCNCc2cc(=O)oc3cc(Cl)ccc23)s1 | 0.016 | 0.012 | 0.002 | 0.683 | 8400 | 3300 | 62 (≈ 27.5 mg/mL) | 5.1 | 0 | 7.2 | 8.3 | 3.4
14 | NS(=O)(=O)c1ccc(NS(=O)(=O)c2ccc(NCc3cc(=O)oc4cc(Cl)ccc34)cc2)cc1 | 0.014 | 0.033 | 0.003 | – | – | – | – | – | – | – | – | –
15 | NS(=O)(=O)c1ccc(NCc2cc(=O)oc3cc(Cl)ccc23)c(I)c1 | 0.07 | 0.61 | 0.036 | – | – | – | – | – | – | – | – | –
16 | NS(=O)(=O)c1cc(S(N)(=O)=O)c(NCc2cc(=O)oc3cc(Cl)ccc23)cc1Cl | 0.05 | 0.4 | 0.012 | – | – | – | – | – | – | – | – | –
17 | NS(=O)(=O)c1nnc(NS(=O)(=O)c2ccc(NCc3cc(=O)oc4cc(Cl)ccc34)cc2)s1 | 0.004 | 0.005 | 0.002 | – | – | – | – | – | – | – | – | –
18 | NS(=O)(=O)c1ccc(NCc2cc(=O)oc3cc(Cl)ccc23)c(F)c1 | 0.11 | 0.54 | 0.03 | – | – | – | – | – | – | – | – | –
19 | Cn1nc(S(N)(=O)=O)s/c1=N\Cc1cc(=O)oc2cc(Cl)ccc12 | 0.016 | 0.029 | 0.006 | – | – | – | – | – | – | – | 6 | –
20 | NS(=O)(=O)c1nnc(NCc2cc(=O)oc3cc(Cl)ccc23)s1 | 0.015 | 0.036 | 0.007 | 0.558 | 6500 | 2800 | 54 (≈ 20.1 mg/mL) | 3.9 | 0 | 4.9 | 5.8 | 1.5
21 | CCN(Cc1cc(=O)oc2cc(Cl)ccc12)C1CC(C)S(=O)(=O)c2sc(S(N)(=O)=O)cc21 (stereo not given) | 0.025 | 18 | 0.008 | 1.762 | 5900 | 2100 | 41 (≈ 21.2 mg/mL) | 1.9 | 0 | 1.6 | 3.7 | 0
